Results on 4 compounds are retold here after ChEMBL document CHEMBL1201862, “PubChem BioAssay data set” (2004).

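Assay format: 96-well plates, 48-hour exposure. The concentration for 50% growth inhibition is given as GI50.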 Activity calls are given as the source filed them. Rule as the data show it: active = GI50 up to about 1.1 µM and inactive = higher.

Some test systems named below: A498; A549; BT-549; CAKI-1; DLD-1; EKVX; HL-60; HT-29; LOX IMVI; MDA-MB-231; MOLT-4; Malme-3M; NCI-H226; RPMI-8226; SF-295; SK-MEL-2; SN12C; T47D; UACC-257; NCI/ADR-RES.
Assay in all cases: NCI anticancer screen, dose series, 48 h

As to `O=C1C=CC(=O)c2ccc(=O)ccc21`, the GI50 is 16.9 µM (inactive) in the assay with A498; 30.1 µM (inactive) in the assay with A549; 17.7 µM (inactive) in the assay on BT-549; 9.25 µM (inactive) with CAKI-1; 4.34 µM (inactive) in the assay on DLD-1; 22.4 µM (inactive) in the assay with EKVX. For the same compound, the GI50 in the assay with HL-60 is 2.1 µM (inactive); in the assay with HT-29 it was 18.4 µM (inactive); in the assay on LOX IMVI it was 4.7 µM (inactive); in the assay with MDA-MB-231 it was 20.5 µM (inactive); with MOLT-4 it was 1.87 µM (inactive); in the assay on Malme-3M it was 18.1 µM (inactive). Also, the GI50 in the assay on NCI-H226 was 34.8 µM (inactive); in the assay on RPMI-8226, 3.15 µM (inactive); in the assay on SF-295 it was 13.2 µM (inactive); in the assay with SK-MEL-2 it was 18.1 µM (inactive); with SN12C it was 17.3 µM (inactive); with T47D, 2.34 µM (inactive). In addition, the GI50 in the assay with UACC-257 is 17.1 µM (inactive).
Turning to `COC(=O)Nc1nc2cc(C(=O)c3cccs3)ccc2[nH]1` [NOCODAZOLE], the GI50 is 0.0196 µM (active) with A498; 0.0186 µM (active) with A549; 0.0527 µM (active) in the assay on BT-549; 1.11 µM (active) in the assay with CAKI-1; 0.0344 µM (active) in the assay on DLD-1; 0.0397 µM (active) with EKVX. Further, the GI50 in the assay with HL-60 was 0.0113 µM (active); with HT-29, 0.0142 µM (active); in the assay on LOX IMVI, 0.0214 µM (active); in the assay on MDA-MB-231 it was 0.171 µM (active); in the assay with MOLT-4, 0.0205 µM (active); in the assay on Malme-3M, 0.0272 µM (active). Further, the GI50 was 0.0625 µM (active) in the assay on NCI-H226; < 0.0132 µM (active) in the assay on RPMI-8226; 0.0128 µM (active) with SF-295; < 0.0193 µM (active) with SK-MEL-2; 0.074 µM (active) in the assay with SN12C; > 80.9 µM (inactive) with T47D. For the same compound, in the assay on UACC-257, the GI50 was < 0.148 µM (active).
For the compound `O=C1CC(c2n[nH]c3ccccc23)C(=O)N1c1ccccc1` (stereo not drawn), the GI50 in the assay on A498, with A549, in the assay on BT-549, in the assay on CAKI-1, with DLD-1 and in the assay on EKVX was > 100 µM (inactive) in each case. In addition, the GI50 in the assay with HL-60 was 25.6 µM (inactive); in the assay with HT-29, > 100 µM (inactive); in the assay with LOX IMVI, > 100 µM (inactive); with MDA-MB-231, > 100 µM (inactive); in the assay on MOLT-4, > 74 µM (inactive); in the assay on Malme-3M, > 100 µM (inactive). Further, the GI50 with NCI-H226 is > 88.5 µM (inactive); in the assay on NCI/ADR-RES it was > 100 µM (inactive); in the assay with RPMI-8226, 82.8 µM (inactive); in the assay on SF-295, > 100 µM (inactive); with SK-MEL-2, > 100 µM (inactive); in the assay with SN12C it was > 100 µM (inactive). For the same compound, the GI50 with T47D and with UACC-257 was > 100 µM (inactive) in each case.
`C[C@H]1CCC2C(OC(=O)[C@@H]2CN(C)C)[C@]2(C)C(=O)C=CC12O` (stereo partly drawn): the GI50 is 14.2 µM (inactive) in the assay with A498; 24.8 µM (inactive) with A549; 5.37 µM (inactive) with BT-549; 7.06 µM (inactive) with CAKI-1; 2.99 µM (inactive) in the assay with DLD-1; 4.02 µM (inactive) in the assay on EKVX. Moreover, the GI50 in the assay on HL-60 is 1.65 µM (inactive); with HT-29, 4.09 µM (inactive); with LOX IMVI, 4.59 µM (inactive); with MDA-MB-231 it was 9.55 µM (inactive); in the assay with MOLT-4 it was 2.82 µM (inactive); in the assay with Malme-3M, 3.7 µM (inactive). Also, the GI50 is 7.01 µM (inactive) in the assay on NCI-H226; 2 µM (inactive) in the assay with NCI/ADR-RES; 2.67 µM (inactive) with RPMI-8226; 13.2 µM (inactive) with SF-295; 9.44 µM (inactive) in the assay on SK-MEL-2; 4.09 µM (inactive) with SN12C. Moreover, the GI50 was 3.2 µM (inactive) in the assay with T47D and 4.86 µM (inactive) with UACC-257.
